The values below are quoted from earlier work in patent US7271167B2, “Compounds, compositions, and methods” (Cytokinetics, Inc., priority 2002, dated 2007).

The test system of the data set is A549 cells. As to conditions: data provided by National Cancer Institute, Developmental Therapeutic Program.

In the case of `COc1cccc2c1C(=O)c1c(O)c3c(c(O)c1C2=O)C[C@@](O)(C(=O)CO)C[C@@H]3O[C@H]1C[C@H](N)[C@H](O)[C@H](C)O1` [doxorubicin], the GI50 is 0.063 µM. For the molecule `O=c1[nH]cc(F)c(=O)[nH]1` [5-fluorouracil], the 50% growth inhibitory concentration (GI50) was 1 µM. For `CC(=O)O[C@H]1C(=O)[C@@]2(C)[C@H]([C@H](OC(=O)c3ccccc3)[C@]3(O)C[C@H](OC(=O)[C@H](O)[C@@H](NC(=O)c4ccccc4)c4ccccc4)C(C)=C1C3(C)C)[C@]1(OC(C)=O)CO[C@@H]1C[C@@H]2O` [paclitaxel], the GI50 was 0.004 µM. As for `NC(=O)NO` [hydroxyurea], the GI50 is 500 µM.
